Source: patent US4950676A, “Amino-esters of dihydropyridines, and their use as circulatory agents for treating ischaemic heart diseases” (Bayer Aktiengesellschaft, priority 1986, dated 1990)
In brackets after ≈: the same amount, converted by molar mass.

Experiments:
isolated aortic ring [1] = test: contraction of isolated rabbit aortic ring stimulated by KCl depolarization (calcium-antagonistic action); conditions: Oryctolagus cuniculus, isolated aortic ring from rabbits, read-out: IC50 a (active compound concentration at which the contraction of the aortic ring is inhibited by 50%)
Description: (§1) The specific calcium-antagonistic action of the compounds according to the invention is examined in a test on isolated rabbit vessels (aorta). In this test, contractions of the vascular muscle are caused in vitro by stimulation with KCl or by noradrenaline. KCl causes contractions due to the depolarization-dependent inwards flow of calcium ions.
(§2) These contractions are inhibited by calcium-antagonistic drugs as a function of the dose. Noradrenaline causes contractions by stimulation of the vascular alpha-receptors and the resulting release of calcium ions from the intracellular stores. The noradrenaline-induced contractions are not inhibited by specific calcium antagonists. In contrast, antagonists of the alpha-adrenoreceptors inhibit only the noradrenaline-induced contraction.
(§3) Table 1: Active compound concentration at which the contraction of the aortic ring is inhibited by 50% (IC50)
(§4) Isolated aortic ring from rabbits, stimulated
(a) by KCl depolarization or […]

isolated aortic ring [2] = test: contraction of isolated rabbit aortic ring stimulated by noradrenaline (alpha-receptor); conditions: Oryctolagus cuniculus, isolated aortic ring from rabbits, read-out: IC50 b (active compound concentration at which the contraction of the aortic ring is inhibited by 50%)
Description: as §1, §2, §3, §4

anaesthetized cats [3] = conditions: statement on known substances; in words; cited from earlier work
hypertensive rats = test: arterial blood pressure of conscious spontaneously hypertensive rats (tail cuff) after oral administration; format: in vivo, rat (spontaneously hypertensive rats of the Okamoto strain); conditions: Rattus norvegicus, peroral, read-out: ED20 (reduction in blood pressure in hypertensive rats by 20 mm Hg)
Protocol: The compounds according to the invention are also active after oral administration. The arterial blood pressure of conscious rats with hypertension of genetic origin ("spontaneously hypertensive rats" of the Okamoto strain) is measured bloodlessly with a "tail cuff" at defined intervals of time after administration of the substance. The substances to be tested are suspended in a Tylose suspension and administered intragastrally ("orally") in various doses by means of a stomach tube. The compounds according to the invention reduce the arterial blood pressure of hypertensive rats in a clinically relevant dosage (see Table 3).
Table 3: Reduction in blood pressure in hypertensive rats by 20 mm Hg (ED20)

anaesthetized cats [4] = test: vein volume of an extremity by plethysmography with simultaneous arterial blood pressure recording in anaesthetized cats; format: in vivo, cat; conditions: Felis catus, iv; anaesthetized cats (ketamine), i.v., in comparison with the reference sodium nitroprusside; read-out: Dose giving significant increase in vein capacity
Protocol: The vein volume of an extremity is measured by plethysmography on anaesthetized cats (ketamine). The arterial blood pressure is also recorded at the same time. Calcium-antagonistic DHP derivatives known hitherto reduce the arterial blood pressure and reduce the vein volume by reflectory vein constriction.
Table 2: Significant increase in vein capacity in anaesthetized cats in comparison with the reference active substance sodium nitroprusside.

| SMILES | IC50 (isolated aortic ring [1]) [µg/mL] | IC50 (isolated aortic ring [2]) [µg/mL] | vein volume (known substances) (anaesthetized cats [3]) | ED (20 mm Hg) (hypertensive rats) [mg/kg] | minimal effective dose (anaesthetized cats [4]) [mg/kg] |
| --- | --- | --- | --- | --- | --- |
| COC(=O)C1=C(C)NC(C)=C(C(=O)OCCCCCCN(CCN(Cc2ccccc2)C(C)COc2ccccc2)CCN(Cc2ccccc2)C(C)COc2ccccc2)C1c1cccc([N+](=O)[O-])c1 (stereo not drawn) [Example 2, 3-Methyl 5-{6-[bis-[2-[N-benzyl-N-(2-phenoxy-1-methylethyl)amino]ethyl]amino]hexyl}1,4-dihydro-2,6-dimethyl-4-(3-nitrophenyl)-pyridine-3,5-dicarboxylate] | 0.9 (≈ 0.931 µM) | 3 (≈ 3.1 µM) | – | – | – |
| Cc1ccc(N(CC2=NCCN2)c2cccc(O)c2)cc1 [phentolamine] | – | – | increase in the vein volume | – | – |
| CC1=C(C(=O)OCCNCCN(Cc2ccccc2)C(C)COc2ccccc2)C(c2cccc([N+](=O)[O-])c2)C(C(=O)OC(C)C)=C(C)N1 (stereo not drawn) [Example 3, 3-Isopropyl 5-{2-[2-[N-benzyl-N-(2-phenoxy-1-methylethyl)amino]ethylamino]ethyl}1,4-dihydro-2,6-dimethyl-4-(3-nitrophenyl)pyridine-3,5-dicarboxylate] | 0.23 (≈ 0.343 µM) | > 10 | – | – | – |
| COc1ccc2c(c1OC)CCN1CCC(NCCOC(=O)C3=C(C)NC(C)=C(C(=O)OC(C)C)C3c3cccc([N+](=O)[O-])c3)CC21 (stereo not drawn) [Example 8, 3-Isopropyl 5-[2-(1,3,4,6,7,11b-hexahydro-8,9-dimethoxy-2H-benzo[a]quinolizin-2-yl-amino)ethyl]1,4-dihydro-2,6-dimethyl-4-(3-nitrophenyl)pyridine-3,5-dicarboxylate] | 0.3 (≈ 0.462 µM) | 1.6 (≈ 2.47 µM) | – | 31.5 | – |
| COC(=O)[C@@H]1[C@H]2C[C@H]3c4[nH]c5ccccc5c4CCN3C[C@@H]2CC[C@@H]1O [yohimbine] | – | – | increase in the vein volume | – | – |
| COC(=O)C1=C(C)NC(C)=C(C(=O)OCCCCCCNCCN(Cc2ccccc2)C(C)COc2ccccc2)C1c1cccc([N+](=O)[O-])c1 (stereo not drawn) [Example 1, 3-Methyl 5-{6-[2-[N-benzyl-N-(2-phenoxy-1-methylethyl)amino]ethylamino]hexyl}1,4-dihydro-2,6-dimethyl-4-(3-nitrophenyl)-pyridine-3,5-dicarboxylate] | 0.23 (≈ 0.329 µM) | > 10 | – | – | – |
| COC(=O)C1=C(C)NC(C)=C(C(=O)OCCNCC2COc3ccccc3O2)C1c1cccc([N+](=O)[O-])c1 (stereo not drawn) [Example 13, 3-Methyl 5-[2-(1,4-benzodioxan-2-yl-methylamino)ethyl]1,4-dihydro-2,6-dimethyl-4-(3-nitrophenyl)pyridine-3,5-dicarboxylate] | 0.08 (≈ 0.153 µM) | 0.7 (≈ 1.34 µM) | – | 3 | – |
| COC(=O)C1=C(C)NC(C)=C(C(=O)OCCN(C)CC2COc3ccccc3O2)C1c1cccc([N+](=O)[O-])c1 (stereo not drawn) [Example 11, 3-Methyl 5-{2-[N-(1,4-benzodioxan-2-yl-methyl)-N-methylamino]ethyl}1,4-dihydro-2,6-dimethyl-4-(3-nitrophenyl)pyridine-3,5-dicarboxylate] | 0.23 (≈ 0.428 µM) | 0.18 (≈ 0.335 µM) | – | 3 | 0.1 |
| COc1ccc2c(c1OC)CCN1CCC(NCCCOC(=O)C3=C(C)NC(C)=C(C(=O)OC(C)C)C3c3cccc([N+](=O)[O-])c3)CC21 (stereo not drawn) [Example 7, 3-Isopropyl 5-[3-(1,3,4,6,7,11b-hexahydro-8,9-dimethoxy-2H-benzo[a]quinolizin-2-yl-amino)propyl]1,4-dihydro-2,6-dimethyl-4-(3-nitrophenyl)pyridine-3,5-dicarboxylate] | 0.5 (≈ 0.754 µM) | 1.4 (≈ 2.11 µM) | – | 31.5 | – |
| CC1=C(C(=O)OCCNCC2COc3ccccc3O2)C(c2cccc([N+](=O)[O-])c2)C(C(=O)OC(C)C)=C(C)N1 (stereo not drawn) [Example 12, 3-Isopropyl 5-[2-(1,4-benzodioxan-2-yl-methylamino)ethyl]1,4-dihydro-2,6-dimethyl-4-(3-nitrophenyl)pyridine-3,5-dicarboxylate] | 0.016 (≈ 0.029 µM) | 0.4 (≈ 0.725 µM) | – | – | 0.1 |
| COC(=O)C1=C(C)NC(C)=C(C(=O)OCCNC2CCN3CCc4c(ccc(OC)c4OC)C3C2)C1c1cccc([N+](=O)[O-])c1 (stereo not drawn) [Example 6] | 0.26 (≈ 0.419 µM) | 0.36 (≈ 0.58 µM) | – | 1 | – |
| CC1=C(C(=O)OCCN(CCN(Cc2ccccc2)C(C)COc2ccccc2)CCN(Cc2ccccc2)C(C)COc2ccccc2)C(c2cccc([N+](=O)[O-])c2)C(C(=O)OC(C)C)=C(C)N1 (stereo not drawn) [Example 4, 3-Isopropyl 5-(2-[bis-[2-[N-benzyl-N-(2-phenoxy-1-methylethyl)amino]ethyl]amino]ethyl}1,4-dihydro-2,6-dimethyl-4-(3-nitrophenyl)-pyridine-3,5-dicarboxylate] | 0.4 (≈ 0.426 µM) | 5 (≈ 5.33 µM) | – | – | – |
| COc1ccc2c(c1)CCN1CCC(NCCOC(=O)C3=C(C)NC(C)=C(C(=O)OC(C)C)C3c3cccc([N+](=O)[O-])c3)CC21 (stereo not drawn) [Example 9, 3-Isopropyl 5-[2-(1,3,4,6,7,11b-hexahydro-9-methoxy-2H-benzo[a]quinolizin-2-yl)amino]ethyl 1,4-dihydro-2,6-dimethyl-4-(3-nitrophenyl)pyridine-3,5-dicarboxylate] | – | – | – | – | 1 |
